Reference: US20080219972A1, “Prostatic Acid Phosphatase (Pap) Materials and Methods of Use Thereof in the Prophylactic and Therapeutic Treatment of Prostate Cancer” (UNIVERSITY OF MARYLAND, BALTIMORE, priority 2005, published 2008)

System: CD4 T-cells from PBMC of HLA-DRB1*1501-positive GP patients and normal male donors
Assay: Human CD4 T-cell line responses to PAP polypeptides (IFN-γ ELISPOT, proliferation assay, IFN-γ ELISA)
Assay type: cell-based
Procedure: The PAP polypeptides identified above were tested in human cultures. CD4 T-cell lines, which were specific for polypeptide 15 or polypeptide 19, were established from PBMC of HLA-DRB1*1501-positive GP patients and normal male donors by repeated stimulations with the polypeptide 19. After two rounds of in vitro stimulation, T-cells were plated at 2×10^4 cells/well in 96-well, round-bottomed plates, and stimulated by irradiated autologous PBMC in the presence/absence of polypeptide 19 or control polypeptide 15.
No polypeptide-specific responses were detected in primary PBMC cultures by IFN-γ ELISPOT, proliferation assay, or IFN-γ ELISA. When CD4 T-cells were stimulated with polypeptide […], cells from three of five GP patients and three of four normal male donors responded to the specific peptide in secondary cultures.
The HLA restriction of the cell line was confirmed using an immortalized B-cell line derived from a patient with type II Bare Lymphocyte Syndrome (BLC cells) and engineered to express HLA-DRB1*1501.
A CD4 T-cell line, which was developed from patient Pr131 by repeated stimulation with polypeptide 19, recognized human and mouse homolog polypeptides.

## ESEEFLKRLHPYKSFLD TLS (ESEEFLKRLHPYKSFLDTLS; listed as Mus musculus) [mouse homolog, mouse polypeptide corresponding to human polypeptide 19, six amino acid substitutions]
Inferred from concentration range of response
  avidity relative to human polypeptide 19: higher avidity
Line developed by repeated stimulation with polypeptide 19
  recognition by Pr131 CD4 T-cell line raised with polypeptide 19: recognized
Seen in a broader range of concentration
  response of Pr131 CD4 T-cell line stimulated with irradiated autologous PBMC: strong response
